This data set relates to GRN mRNA. Nature of the data set: GRN mRNA qPCR in SK-N-AS cells transfected with ASOs. To be noted: SK-N-AS; for hGRN mRNA FC: Table 9, 48 hours post-transfection; for hGRN mRNA FC / 120 nM FC (GRN mRNA): 120 nM; for hGRN mRNA FC / 3.75 nM FC (GRN mRNA) / 7.5 nM FC (GRN mRNA) / 15 nM FC (GRN mRNA) / 30 nM FC (GRN mRNA) / 60 nM FC (GRN mRNA) / 120 nM FC (GRN mRNA): normalized to CO-1589; for 3.75 nM FC (GRN mRNA) / 7.5 nM FC (GRN mRNA) / 15 nM FC (GRN mRNA) / 30 nM FC (GRN mRNA) / 60 nM FC (GRN mRNA) / 120 nM FC (GRN mRNA): Table 10; for 3.75 nM FC (GRN mRNA) / 7.5 nM FC (GRN mRNA) / 15 nM FC (GRN mRNA) / 30 nM FC (GRN mRNA) / 60 nM FC (GRN mRNA) / 120 nM FC (GRN mRNA) / hit identification (GRN mRNA dose escalation): 48 hours; for hit identification (GRN mRNA dose escalation): 3.75 nM to 120 nM. The class given is cell-based, human. Here is the method:
The best ASOs based on increased GRN mRNA fold-change were selected for further characterization in dose titration studies. Briefly, human neuroblastoma SK-N-AS cells were transfected with 20 to 160 nM of ASOs CO-3423, CO-3431, CO-3463, and CO-3503. A steric non-targeting control ASO (sNTC) was used as a control. Cells were collected for mRNA analysis after 48 hours and GRN mRNA quantified by qPCR. Housekeeping genes for normalization were GAPDH and PPIA, and mRNA fold change (FC) was normalized to sNTC.
36 additional ASOs were designed with different modifications and base walking around selected ASOs. The effect of increasing doses of these ASOs was assessed in the human neuroblastoma cell line SK-N-AS following transfection. Relative GRN mRNA levels in SK-N-AS cells after treatment was assessed 48-hours post-transfection, and data from exemplary ASOs is shown in FIGS. 5A and 5B.
Additional chemical modifications, including LNA, modifications were made to CO-3423. SK-N-AS cells were transfected with increasing concentrations of the LNA/PS modified ASOs and GRN mRNA quantified by qPCR. ASOs including different LNA modifications of CO-3423 had similar efficacy (i.e, similar increased GRN mRNA expression). GRN mRNA was normalized to the average fold-change of cells treated with two steric non-targeting control ASOs (CO-3772 and CO-1589 (sNTC1)).
The effect of ASO length on GRN gene expression modulation was also investigated. SK-N-AS cells were transfected with increasing concentrations of the longer ASOs and GRN mRNA quantified by qPCR. Increasing the length of CO-3423 increased the potency of the ASO, as shown in Table 4. mRNA was normalized to the average fold change of cells treated with two steric non-targeting control ASOs (CO-3772 and CO-1589 (sNTC1)).
To determine whether variations in the PO/PS internucleotide bond linkages impacted the ability of CO-3423 and CO-3431 to modulate gene expression, several modified ASOs based on these parent ASOs were prepared. SK-N-AS cells were transfected with increasing concentrations of the mixed PO/PS bond ASOs described in Tables 5 and 6, and GRN mRNA quantified by qPCR.
GRN mRNA fold-change after treatment with mixed PO/PS bond versions of CO-3423 is shown in Table 5. mRNA was normalized to the average fold change of cells treated with steric nontargeting controls (CO-3772, CO-1589 (sNTC1), and CO-1929 (sNTC3)).
GRN mRNA fold-change after treatment with mixed PO/PS bond versions of CO-3431 is shown in Table 6. mRNA was normalized as described above.
To further assess the effect of additional modifications on the ability of CO-3423 parent ASO to modulate GRN gene expression, additional LNA tiling and PO bond modifications were incorporated to CO-3423. SK-N-AS cells were transfected with increasing concentrations of the modified ASOs and GRN mRNA quantified by qPCR. CO-3423 was used for comparison. GRN mRNA was normalized to the average fold-change of cells treated with a steric non-targeting control ASO, CO-1589 (sNTC1).
To further assess the effect of modifications on the ability of CO-3463 parent ASO to modulate GRN gene expression, ASOs based on this ASOS incorporating additional LNA modifications were prepared and compared to […]. SK-N-AS cells were transfected with increasing concentrations of the ASOs and GRN mRNA quantified by qPCR. GRN mRNA was normalized to the average fold-change of cells treated with a steric non-targeting control ASO, CO-1589 (sNTC1).
68 additional ASOs were designed to target intergenic enhancers (eRNA). 48 hours post-transfection, the cells were collected for GRN mRNA analysis using qPCR. CO-1589, a steric nontargeting control ASO, was used as a control. GRN mRNA was normalized to cells treated with CO-1589.
The best hits from these ASOs were tested in a dose escalation study. Cells were incubated for 48 hours. Subsequently, the cells were collected for mRNA quantification via RT-qPCR. […]
A general note: In qPCR the cycle at which signal appears reflects the starting amount.

Oligonucleotides are written 5' to 3', each unit as a sugar letter and its base; * is a phosphorothioate linkage, no mark a phosphodiester; rarer units and linkages stand in square brackets, end groups in braces. Plain capitals give the bases only. e = 2'-O-(2-methoxyethyl) (MOE); [5mC] = 5-methylcytosine

As to “CO-4606: ASO designed to target intergenic enhancers (eRNA) (antisense eA*e[5mC]*eG*eT*eG*eA*eA*eG*eA*eG*e[5mC]*e[5mC]*eG*eG*eA*eG*eA*eT*eT*e[5mC])”, the “hGRN mRNA FC” value is 1.4 FC, the “3.75 nM FC (GRN mRNA)” value amounted to 1.1 FC, the “7.5 nM FC (GRN mRNA)” value was 1.1 FC and the “15 nM FC (GRN mRNA)” value is recorded as 1.2 FC. Moreover, the “30 nM FC (GRN mRNA)” value turned out to be 1.3 FC, the “60 nM FC (GRN mRNA)” value is given as 1.4 FC and the “120 nM FC (GRN mRNA)” value is 1.7 FC.

Consider “CO-4607: ASO designed to target intergenic enhancers (eRNA) (antisense eA*eA*eG*eA*eA*eA*eT*eA*eG*eA*eT*eT*eA*e[5mC]*e[5mC]*e[5mC]*e[5mC]*eG*eT*eT)”, for which the “hGRN mRNA FC” value came out at 1.1 FC.

For “CO-4608: ASO designed to target intergenic enhancers (eRNA) (antisense eT*eA*eG*eA*e[5mC]*eA*e[5mC]*eT*eT*e[5mC]*e[5mC]*eA*eG*e[5mC]*e[5mC]*e[5mC]*eA*e[5mC]*e[5mC]*eT)”, the “hGRN mRNA FC” value was determined as 1.1 FC.

With “CO-4609: ASO designed to target intergenic enhancers (eRNA) (antisense e[5mC]*e[5mC]*eA*eA*eT*eA*eA*eA*eG*e[5mC]*e[5mC]*eT*eT*eG*eG*eG*eT*eG*e[5mC]*e[5mC])”, the “hGRN mRNA FC” value is 1.2 FC.

On to “CO-4610: ASO designed to target intergenic enhancers (eRNA) (antisense eG*eG*eA*e[5mC]*eA*eT*eG*e[5mC]*eT*eG*eG*eA*eA*eA*eG*eT*e[5mC]*eT*eT*eA)”, for which the “hGRN mRNA FC” value was determined as 1.2 FC.

For “CO-4611: ASO designed to target intergenic enhancers (eRNA) (antisense eT*eA*eT*eT*eA*eA*eT*e[5mC]*e[5mC]*eA*e[5mC]*eG*e[5mC]*eT*eG*eT*e[5mC]*e[5mC]*e[5mC]*eA)”, the “hit identification (GRN mRNA dose escalation)” value (from here on “hit identification”) is recorded as “initial hits”, the “hGRN mRNA FC” value is listed as 1.4 FC, the “3.75 nM FC (GRN mRNA)” value is given as 1.1 FC and the “7.5 nM FC (GRN mRNA)” value was 1.1 FC. In addition, the “15 nM FC (GRN mRNA)” value is on record as 1.1 FC, the “30 nM FC (GRN mRNA)” value came to 1.1 FC, the “60 nM FC (GRN mRNA)” value is 1.1 FC and the “120 nM FC (GRN mRNA)” value came out at 1.3 FC.

For the substance “CO-4612: ASO designed to target intergenic enhancers (eRNA) (antisense eA*eT*eG*eG*e[5mC]*eT*eA*eA*eA*eA*e[5mC]*eT*eA*e[5mC]*e[5mC]*eT*eT*e[5mC]*e[5mC]*eA)”, the “hGRN mRNA FC” value is 1.0 FC.

“CO-4613: ASO designed to target intergenic enhancers (eRNA) (antisense eA*eT*e[5mC]*eA*eA*eG*eG*eG*eT*eT*eT*eG*eG*e[5mC]*eG*eT*eT*eT*eA*eG)”: the “hit identification” value is recorded as “initial hits”, the “hGRN mRNA FC” value was determined as 1.6 FC, the “3.75 nM FC (GRN mRNA)” value was determined as 1.0 FC and the “7.5 nM FC (GRN mRNA)” value came to 1.1 FC. The “15 nM FC (GRN mRNA)” value worked out at 1.2 FC, the “30 nM FC (GRN mRNA)” value came to 1.1 FC, the “60 nM FC (GRN mRNA)” value is on record as 1.2 FC and the “120 nM FC (GRN mRNA)” value was found to be 1.4 FC.

Consider “CO-4614: ASO designed to target intergenic enhancers (eRNA) (antisense eT*eG*eA*e[5mC]*eT*eA*eG*eA*eG*eA*eA*eA*e[5mC]*eG*e[5mC]*eT*eT*eA*eG*eA)”, for which the “hGRN mRNA FC” value stood at 1.2 FC.

On to “CO-4615: ASO designed to target intergenic enhancers (eRNA) (antisense e[5mC]*eA*eT*eT*eT*e[5mC]*eA*e[5mC]*eA*e[5mC]*eT*eT*eG*eT*eA*eT*eG*eA*eG*e[5mC])”, for which the “hGRN mRNA FC” value is recorded as 1.0 FC.

Regarding “CO-4616: ASO designed to target intergenic enhancers (eRNA) (antisense eA*eA*eG*eA*eA*eG*eG*e[5mC]*e[5mC]*eA*eA*eG*e[5mC]*eT*eG*eG*eT*eA*e[5mC]*e[5mC])”, the “hGRN mRNA FC” value turned out to be 1.2 FC.

For “CO-4617: ASO designed to target intergenic enhancers (eRNA) (antisense eG*eG*eA*eG*eA*eT*eA*eG*eG*eG*eT*e[5mC]*eA*e[5mC]*eG*eT*eA*e[5mC]*eT*eT)”, the “hGRN mRNA FC” value is 1.2 FC.

As for “CO-4618: ASO designed to target intergenic enhancers (eRNA) (antisense eA*eT*eA*eG*eG*eT*e[5mC]*eA*eG*eG*eG*eA*eA*eT*eG*e[5mC]*e[5mC]*eG*e[5mC]*e[5mC])”, the “hGRN mRNA FC” value was 1.3 FC.

As to “CO-4619: ASO designed to target intergenic enhancers (eRNA) (antisense eT*eG*eA*eT*eA*eT*eA*eG*eA*eG*eA*eT*e[5mC]*eT*eG*e[5mC]*eA*eG*e[5mC]*e[5mC])”, the “hit identification” value is listed as “initial hits”, the “hGRN mRNA FC” value is 1.3 FC, the “3.75 nM FC (GRN mRNA)” value is reported as 1.0 FC and the “7.5 nM FC (GRN mRNA)” value came out at 1.1 FC. In addition, the “15 nM FC (GRN mRNA)” value is 1.3 FC, the “30 nM FC (GRN mRNA)” value was 1.2 FC, the “60 nM FC (GRN mRNA)” value is 1.2 FC and the “120 nM FC (GRN mRNA)” value stood at 1.6 FC.

On to “CO-4620: ASO designed to target intergenic enhancers (eRNA) (antisense eG*eT*e[5mC]*e[5mC]*eA*eG*e[5mC]*eA*e[5mC]*eG*e[5mC]*eT*e[5mC]*eT*e[5mC]*eA*eG*e[5mC]*eA*e[5mC])”, for which the “hGRN mRNA FC” value is recorded as 1.0 FC.

Consider “CO-4621: ASO designed to target intergenic enhancers (eRNA) (antisense e[5mC]*eG*e[5mC]*eT*eG*e[5mC]*eT*eG*eT*eT*eT*eG*eG*eA*eA*e[5mC]*eG*eA*eG*eT)”, for which the “hGRN mRNA FC” value is recorded as 1.2 FC.

Regarding “CO-4622: ASO designed to target intergenic enhancers (eRNA) (antisense eA*e[5mC]*eA*eG*eT*eG*eG*e[5mC]*e[5mC]*eG*e[5mC]*eA*eT*eA*eA*eA*eT*eT*eT*e[5mC])”, the “hit identification” value is recorded as “initial hits”, the “hGRN mRNA FC” value turned out to be 1.0 FC, the “3.75 nM FC (GRN mRNA)” value stood at 1.0 FC and the “7.5 nM FC (GRN mRNA)” value came out at 1.0 FC. In addition, the “15 nM FC (GRN mRNA)” value is on record as 1.0 FC, the “30 nM FC (GRN mRNA)” value is given as 1.0 FC, the “60 nM FC (GRN mRNA)” value is reported as 1.1 FC and the “120 nM FC (GRN mRNA)” value is reported as 1.1 FC.

On to “CO-4623: ASO designed to target intergenic enhancers (eRNA) (antisense e[5mC]*e[5mC]*eT*eG*eA*e[5mC]*e[5mC]*eT*eG*e[5mC]*e[5mC]*eA*eT*e[5mC]*eT*eA*eT*e[5mC]*eA*eA)”, for which the “hGRN mRNA FC” value worked out at 1.1 FC.

Consider “CO-4624: ASO designed to target intergenic enhancers (eRNA) (antisense eG*eT*e[5mC]*eA*eG*eA*e[5mC]*eT*eG*eT*e[5mC]*e[5mC]*eT*eA*e[5mC]*eA*e[5mC]*e[5mC]*eT*eT)”, for which the “hGRN mRNA FC” value was 1.3 FC.

(Values after patent US20250243488A1, “METHODS OF MODULATING PROGRANULIN EXPRESSION USING ANTISENSE OLIGONUCLEOTIDES TARGETING REGULATORY RNAS” (Camp4 Therapeutics Corporation, priority 2022, published 2025).)
